Test results as given in the METLIN SMRT retention time set (Domingo-Almenara et al. 2019).

Experiment: gradient 5% acetonitrile 3 min, to 50% in 2 min, to 85% in 15 min, held 3 min, 100 µL/min
Settings: column: Zorbax Extend-C18 2.1 x 50 mm; eluents: water / acetonitrile, 0.1% formic acid
Outline: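 The mobile phases were water and acetonitrile, each with 0.1% formic acid, pumped at 100 μL/min through a Zorbax Extend-C18 column (2.1 × 50 mm, 1.8 μm). Pure standards were injected as mixtures of ~100 molecules and detected by a quadrupole time-of-flight mass spectrometer in positive and negative ionization mode. Retention time came from computationally picked adduct peaks, each inspected by hand.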

SMILES	RP-LC retention time
CC1(C)CC(=O)c2cn(-c3ccccc3)c(=O)c(C(=O)Nc3cccnc3)c2C1	700 s
O=C(Cn1cnc2nc(N3CCC(C(=O)NC4CC4)CC3)sc2c1=O)Nc1ccc2c(c1)CCC2	670 s
O=C(NC1CC1)c1ccccc1OCC1CCN(C(=O)c2cc(F)cc(F)c2)CC1	848 s
CN(C)c1ncncc1N1CCC(C(=O)NCCC2=CCCCC2)CC1	679 s
CCSc1nnc(-c2nn(C)c3c2CN(S(=O)(=O)c2ccc(F)c(C)c2)CC3)n1CC	978 s
COc1cc(OC)c(NS(=O)(=O)c2cc(-c3c(C)noc3NC(C)=O)ccc2OC)cc1Cl	792 s
Cn1cnc(S(=O)(=O)N2CCN(c3ccccn3)CC2)c1	536 s
CCC(=O)N1CCc2cc(N3CC(C(=O)NC(C)c4ccccn4)CC3=O)ccc21 (stereo unspecified)	585 s
Cc1nc2cc(N3CC(C(=O)NCc4ccc(OC(C)C)cc4)CC3=O)ccc2o1 (stereo unspecified)	778 s
CC(C)C(=O)Nc1nc(-c2ccc3c(c2)NC(=O)C(C)O3)cs1 (stereo unspecified)	787 s
Cc1ccc(Cn2c(=O)c3nn(C)cc3n3c(=O)n(Cc4ccc(F)cc4)nc23)cc1	947 s
CCCc1nc(NCc2ccc(OC)c(OC)c2)ncc1C(=O)O	740 s
COc1cc(NC(=O)Cn2nc3c4cc(F)ccc4ncn3c2=O)cc(OC)c1	697 s
COc1ccc(CCC(=O)NCc2cccnc2OC)cc1	749 s
COC(=O)c1cc(OCC(=O)Nc2ccc(OC)c(Cl)c2)c2cc(OC)ccc2n1	867 s
CCc1nnc([C@@H]2CC(F)(F)CN2C(=O)c2cc(C)no2)o1	686 s
O=C(C(c1ccccc1)n1cccc1)N1CCCC1 (stereo unspecified)	782 s
NC(=O)c1ccc(Oc2ccc(C(N)=O)cc2)cc1	654 s
COc1ccc2cccc(NC(=O)c3c(F)cccc3Cl)c2n1	1090 s
O=C(CCc1c(-c2ccc(Cl)cc2)nc2ccccn12)NCCC1=CCCCC1	756 s
CCN1C(=O)COc2ccc(-c3nc(NC(=O)c4ccncc4)sc3C)cc21	768 s
CCN1C(=O)C2(CCN(C(=O)C3CC3)CC2)c2ccccc21	779 s

SMILES	RP-LC retention time
CCn1c(=O)c2c(cc(C)n2C)n(CC(=O)Nc2ccc(C)cc2Cl)c1=O	871 s
Cn1nc(CNC(=O)c2ccc3c(c2)OCO3)c2ccccc21	760 s
O=C(Nc1ccc(F)cc1)c1nnc(C(=O)N2CCC(C(=O)NCc3ccccn3)CC2)s1	909 s
COc1ccc(C(=O)NCCc2cn3cccc(C)c3n2)c(OC)c1	551 s
O=C(C1CC1)N1[C@H]2CC[C@@H]1c1cnc(-c3ccc(F)cc3)nc1C2	870 s
O=C(Cc1cccn1-c1ccccc1)NCc1cc(F)ccc1F	936 s
O=C(Cn1c(=O)oc2ccccc21)N1C[C@@H](CO)[C@H](c2ccccn2)C1	591 s
CCn1c(C(=O)N2CCN(c3cccc(C)c3)C(C)C2)cc2sccc21 (stereo unspecified)	1050 s
Cc1cc(-c2nnc(-c3ccco3)o2)c(C)n1CC(=O)NCc1ccc(F)cc1Cl	881 s
CCCNc1cc(N2CCCC(CCC(=O)Nc3ccc(OC)cc3OC)C2)ncn1 (stereo unspecified)	707 s
Cc1cc(C)n(-c2ccnc(N3CCC(C(=O)NCCN4CCCCC4)CC3)n2)n1	601 s
CCC(=O)N(C)CCc1noc(-c2ccc(C(=O)NCCN(CC)CC)cc2)n1	597 s
CCOC(=O)c1[nH]c(C)c(CCC(=O)N2CCC(C(=O)NCCOC)CC2)c1C	628 s
COc1ccccc1CC(=O)N1CCN(c2ccc(-c3ccccn3)nn2)CC1	598 s
COC(=O)c1ncn2c1C(=O)N(Cc1cccc(C)c1)C(C)(C(=O)NCc1ccc(C)cc1)C2 (stereo unspecified)	801 s
Cc1ccc(NC(=O)C2=C(Nc3ccc4c(c3)n(C)c(=O)n4C)c3ccccc3S2(=O)=O)cc1	902 s
CC(=O)c1ccc(NC(=O)Cn2c(-c3ccc(F)cc3)nc(C)cc2=O)cc1	953 s
CCS(=O)(=O)c1nc2ccc(NS(=O)(=O)c3c(C)c(C)cc(C)c3C)cc2s1	1020 s
COc1ccc(NC(=O)CN2c3ccc(F)cc3-c3ccccc3S2(=O)=O)c(OC)c1	975 s
Cc1cccc2nnc(N3CCN(C(=O)c4ccncc4)CC3)n12	551 s
COc1ccc(-c2nc(C)cc(C)c2CNC(=O)c2cccs2)cc1	610 s
CC(C)(C)C1CCc2[nH]nc(C(=O)NC3CC3)c2C1 (stereo unspecified)	843 s

SMILES	RP-LC retention time
COc1ccc(-c2noc(COC(=O)C3=CN(C)S(=O)(=O)N=C3C)n2)cc1	926 s
Cc1cccc(Sc2nccnc2N2CCCC(C(=O)NCc3cccc(Cl)c3)C2)c1 (stereo unspecified)	1180 s
COc1nc2ccccc2nc1N1CCCC(C(=O)N2CCCC2)C1 (stereo unspecified)	856 s
CCn1ccc2cc(S(=O)(=O)N3CCCC(C(=O)NCCC(C)C)C3)ccc21 (stereo unspecified)	980 s
CC(C)CC(=O)N1CCCC(c2nc(CCNC(=O)C3CCC3)cs2)C1 (stereo unspecified)	734 s
COc1cccc(-c2noc(Cn3c(=O)n(-c4ccc(Cl)cc4)c(=O)c4sccc43)n2)c1	1050 s
COCCNC(=O)c1cc2c(n(-c3ccc(C(C)C)cc3)c1=O)CCCC2=O	872 s
CSc1ccc(-c2noc(Cn3c(=O)n(-c4ccccc4F)c(=O)c4sccc43)n2)cc1	1040 s
Cc1ccc(S(=O)(=O)N2C[C@@H](F)C[C@H]2C(=O)N2CCCCC2)cc1F	836 s
CCn1cc(C(=O)NCc2ccc(Br)cc2)c2cccnc21	836 s
CCCNc1nc(-c2cccc(Cl)c2)cs1	1020 s
COc1cc(NC(=O)C2=C(C)OCCS2)c(Cl)cc1C(=O)N1CCN(c2ccccn2)CC1	668 s
O=C(Nc1ccc(N2CCN(C3CCCC3)C2=O)nc1)c1ccc(F)c(F)c1	916 s
Cc1c(-c2cccc(NC(=O)c3cc(Br)ccc3Cl)c2)nc2ncccn12	716 s
CC(=O)Nc1nsc(N2CCC(C(=O)N3CCN(c4ccccc4F)CC3)CC2)n1	695 s
CCC(CC)C(=O)N1CCC(N2CCN(CC)C2=O)CC1	686 s
O=C1CC(c2cccc(Cl)c2)Cc2nc(N3CCN(c4ccccc4)CC3)ncc21 (stereo unspecified)	1340 s
Cc1ccc(-c2nnc(Cc3nc(-c4ccc(Cl)cc4)no3)o2)cc1F	1190 s
CCN1C(=O)COc2ccc(-c3csc(NC(=O)c4ccc(Br)cc4)n3)cc21	1080 s
C=CCN1C(=O)C2(c3ccccc31)c1[nH]c3ccccc3c1CCN2C(C)=O (stereo unspecified)	836 s
CCN1CCN(c2cc(C)c3cc(NC(=O)/C=C/c4ccc(OC(C)C)cc4)ccc3n2)CC1	646 s
CSc1ccc(-c2nc3cnccn3c2Nc2ccc(C(=O)O)cc2)cc1	719 s
